According to patent publication US11034710B2, “CDK9 inhibitors and polymorphs thereof for use as agents for treatment of cancer” (SUMITOMO DAINIPPON PHARMA ONCOLOGY, INC., priority 2018, dated 2021):
Blank lines part the entries; values can stand above or below the molecule they belong to.

Assays:
[1] = Stability study of amorphous Form A (decomposition to compound A-2); type: physicochemical
[2] = Dynamic vapor sorption (DVS) test of amorphous Form A; type: physicochemical; conditions: 80% relative humidity
[3] = Four-week stability of Form B obtained using various Step 4.1 reaction conditions (40° C./75% RH, HPLC); type: physicochemical; conditions: 40° C. ± 2° C., 75 ± 5% RH, sealed vial
Excerpt: The results of the stability study appear in Table 21.

[4] = test system: patients with advanced solid tumors; assay: Phase I study: safety, dose-limiting toxicities and treatment-emergent adverse events; type: in vivo, human
Excerpt: Patients with advanced metastatic or progressive solid tumors who were refractory to, or intolerant of, established therapy known to provide clinical benefit for their condition were enrolled. Cohorts of 3-6 patients each received escalating doses of compound of structure (I) using a modified Fibonacci dose escalation approach. Once the optimal dose has been established, additional patients may be enrolled to confirm safety and to explore efficacy. This is an ongoing Phase 1, open-label, dose-escalation, safety, PK and PD study. The proposed starting dose and schedule for oral compound of structure (I) was a 1-mg flat dose once daily (QD) for 14 days followed by a 7-day drug-free recovery period (each cycle=21 days). In the absence of dose-limiting toxicities (DLTs) in the first cohort of at least 3 patients, the dose was increased using a modified Fibonacci dose escalation scheme, and BID dosing commenced according to the dose escalation schedule described in Table 28. The first patient in cohort 6 has been enrolled at 8 mg compound of structure (I) BID. The baseline demographics of the first 14 patients enrolled in the study are described in Table 26. […] DLT was defined as any one of the following events observed in cycle 1, regardless of investigator attribution, unless there was a clear alternative explanation: • 1. Grade 3 or greater febrile neutropenia • 2. Grade 4 neutropenia for ≥7 consecutive days • 3. Grade 4 thrombocytopenia or Grade 3 thrombocytopenia with clinically significant bleeding or that requires a platelet transfusion • 4. Grade 3 or 4 nonhematologic AEs will be considered dose limiting, regardless of duration aside from the specific parameters described herein • 5. Grade 4 nausea, vomiting, or diarrhea, regardless of duration • 6. […] Any Grade ≥3 elevations in creatinine • 10. Any Grade 5 toxicity

[5] = Phase I study: plasma pharmacokinetics of compound of structure (I) and alvocidib; type: in vivo, human
Excerpt: Patients with advanced metastatic or progressive solid tumors who were refractory to, or intolerant of, established therapy known to provide clinical benefit for their condition were enrolled. Cohorts of 3-6 patients each received escalating doses of compound of structure (I) using a modified Fibonacci dose escalation approach. Once the optimal dose has been established, additional patients may be enrolled to confirm safety and to explore efficacy.
This is an ongoing Phase 1, open-label, dose-escalation, safety, PK and PD study. The proposed starting dose and schedule for oral compound of structure (I) was a 1-mg flat dose once daily (QD) for 14 days followed by a 7-day drug-free recovery period (each cycle=21 days). In the absence of dose-limiting toxicities (DLTs) in the first cohort of at least 3 patients, the dose was increased using a modified Fibonacci dose escalation scheme, and BID dosing commenced according to the dose escalation schedule described in Table 28. The first patient in cohort 6 has been enrolled at 8 mg compound of structure (I) BID. The baseline demographics of the first 14 patients enrolled in the study are described in Table 26.
Plasma PK parameters of compound of structure (I) and alvocidib were evaluated in Cohorts 1-5 at specific timepoints during the study. Blood was collected from patients in Cohorts 1-5 according to the pharmacokinetic sampling schedule described in Table 29.
PK parameters were estimated using standard noncompartmental methods. Actual sample collection times were used rather than scheduled collection times. Plasma concentrations below the limit of quantification were treated as 0. Imbedded missing plasma concentrations (e.g., missing values between two observed values) were estimated using linear […]. This is consistent with using the trapezoidal rule to calculate AUC. Other missing plasma concentrations were excluded from calculations to estimate PK parameters.

[6] = patients (% of N = 14), oral dosing, advanced solid tumors

Compound: CN1CC[C@H](c2c(OP(=O)(O)O)cc(O)c3c(=O)cc(-c4ccccc4Cl)oc23)[C@H](O)C1 [Form A]
decomposition ([1]; 40° C. and 75% relative humidity for one week): accelerated decomposition | degradation to compound A-2 ([1]; after 10 days at room temperature): 6.85% | degradant trends ([1]; stored at −20° C.): no degradant trends | weight of water taken in (DVS), hygroscopicity [2]: 12.5% | A-2 ([3]; 7 days ± 1 day): 0.88% | HPLC Purity of A-5 ([3]; 7 days ± 1 day): 98.6% | A-2 ([3]; 14 days ± 1 day): 2.2% | HPLC Purity of A-5 ([3]; 14 days ± 1 day): 97.5% | A-2 ([3]; Initial): 0.44% | HPLC Purity of A-5 ([3]; Initial): 99.2%

A-2 ([3]; 7 days ± 1 day): 6.6% | HPLC Purity of A-5 ([3]; 7 days ± 1 day): 91.3% | A-2 ([3]; 14 days ± 1 day): 13.7% | HPLC Purity of A-5 ([3]; 14 days ± 1 day): 84.12% | A-2 ([3]; 21 days ± 1 day): 19.0% | HPLC Purity of A-5 ([3]; 21 days ± 1 day): 78.5% | A-2 ([3]; 28 days ± 1 day): 22.2% | HPLC Purity of A-5 ([3]; 28 days ± 1 day): 75.0% | A-2 ([3]; Initial): 1.02% | HPLC Purity of A-5 ([3]; Initial): 97.0%
Compound: CN1CCC(c2c(OP(=O)(O)O)cc(O)c3c(=O)cc(-c4ccccc4Cl)oc23)C(O)C1.Cl (stereo not shown) [Form A-11]

Compound: CN1CC[C@H](c2c(OP(=O)(O)O)cc(O)c3c(=O)cc(-c4ccccc4Cl)oc23)[C@H](O)C1 [compound of structure (I), 2-(2-chlorophenyl)-5-hydroxy-8-((3S,4R)-3-hydroxy-1-methylpiperidin-4-yl)-4-oxo-4H-chromen-7-yl dihydrogen phosphate]
toxicity observed to date ([4]; oral, Cohorts to date, patients with advanced solid tumors): no unexplained toxicity, and no evidence of dose-limiting diarrhea or neutropenia | Treatment-emergent adverse events grade ≥ 3: Anemia, Grade 3 [4, 6]: 1 (7%) | Treatment-emergent adverse events grade ≥ 3: Chest Pain, Grade 3 [4, 6]: 1 (7%) | Treatment-emergent adverse events grade ≥ 3: Haematuria, Grade 3 [4, 6]: 1 (7%) | Treatment-emergent adverse events grade ≥ 3: Hypotension, Grade 3 [4, 6]: 1 (7%) | Treatment-emergent adverse events grade ≥ 3: Hypoxia, Grade 3 [4, 6]: 1 (7%) | Treatment-emergent adverse events grade ≥ 3: Malignant Pleural Effusion, Grade 3 [4, 6]: 1 (7%) | Treatment-emergent adverse events grade ≥ 3: Pain, Grade 3 [4, 6]: 1 (7%) | Treatment-emergent adverse events grade ≥ 3: Swelling, Grade 3 [4, 6]: 1 (7%)

Tmax ([5]; Cohort 5, 6 mg BID oral Formulation No. 401-01, Cycle 1 Day 1, Mean of subjects 501-503): 60 min | Tmax ([5]; Cohort 5, 6 mg BID oral Formulation No. 401-01, Cycle 1 Day 1, Subject 501): 30 min | Tmax ([5]; Cohort 5, 6 mg BID oral Formulation No. 401-01, Cycle 1 Day 1, Subject 502): 120 min | Tmax ([5]; Cohort 5, 6 mg BID oral Formulation No. 401-01, Cycle 1 Day 1, Subject 503): 30 min | Tmax ([5]; Cohort 5, 6 mg BID oral Formulation No. 401-01, Cycle 1 Day 14, Mean of subjects 501-503): 60 min | Tmax ([5]; Cohort 5, 6 mg BID oral Formulation No. 401-01, Cycle 1 Day 14, Subject 501): 30 min | Tmax ([5]; Cohort 5, 6 mg BID oral Formulation No. 401-01, Cycle 1 Day 14, Subject 502): 120 min | Tmax ([5]; Cohort 5, 6 mg BID oral Formulation No. 401-01, Cycle 1 Day 14, Subject 503): 30 min
Compound: CN1CC[C@H](c2c(O)cc(O)c3c(=O)cc(-c4ccccc4Cl)oc23)[C@H](O)C1 [alvocidib, 2-(2-chlorophenyl)-5,7-dihydroxy-8-[(3S,4R)-3-hydroxy-1-methylpiperidin-4-yl]chromen-4-one]
